This is an account of results in PMC7551886, “Antitumour Effects of Astaxanthin and Adonixanthin on Glioblastoma” (Marine Drugs, 2020).

One data set concerns fibronectin. Kind of data set: Immunoblotting, fibronectin expression in GL261. The note with it: GL261, 10 µM, 48 h. It counts as cell-based, mouse. As to the method: GL261 cell was seeded at 2.5 × 10^4 cells per well in 24-well plates with culture medium supplemented with 10% FBS. After 24 h of incubation, the medium was changed to DMEM containing 10% FBS and 0.1%DMSO PBS, 300 μM temozolomide, 10 μM astaxanthin, or 10 μM adonixanthin was added for 6 and 48 h. Cells were lysed in a special buffer (RIPA buffer R0278; Sigma-Aldrich, St. Louis, MO, USA) with a protease inhibitor cocktail (Sigma-Aldrich), phosphatase inhibitor cocktails 2 and 3 (Sigma-Aldrich), and sample buffer (Wako, Osaka, Japan). The protein concentration was determined by comparison with a known concentration of bovine serum albumin using the BCA Protein Assay Kit (Thermo Fisher Scientific). The amount of total protein was 2 μg. […] The band intensity was […] using an Immuno Star LD (Wako). Band intensity was measured using an LAS-4000 UV mini Luminescent Image Analyzer (Fujifilm, Tokyo Japan) and Multi Gauge Version 3.0 (Fujifilm). The phosphorylation of ERK1/2, Akt, and p38 MAPK was measured by normalizing against total ERK1/2, total Akt, and total p38 MAPK. […]

For data set [1] the following is noted: known; no reference given; cited from earlier work.
The subject of another data set is hippocampal inflammation. On the set-up: method as in PMID 28017669. The conditions noted are these: diabetic mice, oral 25 mg/kg ref 45; cited from earlier work.

In the case of `CC1=C(/C=C/C(C)=C/C=C/C(C)=C/C=C/C=C(C)/C=C/C=C(C)/C=C/C2=C(C)C(=O)[C@@H](O)CC2(C)C)C(C)(C)C[C@H](O)C1` [Adonixanthin, adonixanthin], the expression of fibronectin result in the data set on fibronectin is on record as “decreased”.
Regarding `CC1=C(/C=C/C(C)=C/C=C/C(C)=C/C=C/C=C(C)/C=C/C=C(C)/C=C/C2=C(C)C(=O)[C@@H](O)CC2(C)C)C(C)(C)C[C@H](O)C1=O` [Astaxanthin, astaxanthin], the “dose that does not show adverse effects even with long-term administration” value in data set [1] is given as 50 mg/kg. Further, in the data set on hippocampal inflammation, the hippocampal inflammation entry is listed as “inhibited hippocampal inflammation”.
